Laboratory results reported in US20150224169A1, “COMPOUNDS AND METHODS FOR SELECTIVELY TARGETING CANCER STEM CELLS” (McMaster University, priority 2012, published 2015).
Where two headings read alike, the source gives them in different places.

Key:
[1] = system: variant neoplastic stem cells (v1O4) relative to normal stem cells (H9); assay: Selective-activity dose-response screening assay (cell counts, v1O4 versus H9); format: cell-based, human; details: dose-response curves FIG. 3B
Experimental: Briefly, variant neoplastic stem cells (v1O4) cells were seeded into Matrigel-coated 96 well plates (5000 cells/well) containing mouse embryonic fibroblast conditioned media (MEFCM) supplemented with 8 ng/mL bFGF, and treated for 72 hours with compounds dissolved in DMSO. The final concentration of each compound used in treatment was either 10 μM or 1 μM (n=3). Control wells were treated with 0.1% DMSO (low control) or 100 ng/ml BMP4 (high control to induce LOP). At the end of 72 hours, cells were fixed, stained with Hoechst and imaged by automated microscopy. GFP intensity and Hoechst signal were quantified as measures of LOP and cell count, respectively, and compounds with a Z-score of more than 3 standard deviations from the mean for reduced cell count and LOP were chosen as hits.
In the second stage also shown in FIG. 1, 8- or 10-point dilutions for each compound were tested on variant neoplastic stem cells (v1O4) and normal stem cells (H9 cells) cells to generate dose-response curves. […] Dose response data were fit with a 4-parameter Hill equation to derive EC50, slopes, min and max values using IDBS ActivityBase software. The EC50 values were then used to calculate a selective-activity potency ratio (H9 EC50/v1O4 EC50).

AML patient cells = format: cell-based, human; details: for Ability of AML cells to form CFUs / Selectivity ratio of total CFUs from cord blood cells versus blast CFUs from AML samples: 0.1 μM; for Ability of AML cells to form CFUs / CFU forming potential of AML cells: treated one day, 14 days in methylcellulose; for Selectivity ratio of total CFUs from cord blood cells versus blast CFUs from AML samples: normalized to 0.1% DMSO control, ratio greater than 1 = selective for AML
From the text: (§1) Methylcellulose assays provide a functional and quantitative measure of hematopoietic progenitor/stem cell proliferation/clonogenic potential based on the formation of colony-forming units (CFUs) in vitro. Hematopoietic progenitor/stem cells from lineage-depleted human umbilical cord blood are capable of proliferation and differentiation to all blood lineages. AML blast cells from leukemia patients are myeloid progenitor cells blocked in differentiation that are sustained by a self-renewing leukemic stem cell(s). In this experiment, lineage-depleted cord blood cells and AML samples were each treated with Nystatin for one day and then cultured in methylcellulose for 14 days after which the numbers of CFUs were determined.
(§2) Cord blood and AML patient cells were seeded in 96-well plates at 500 cells and 25000 cells respectively in 50 μL medium containing StemSpan™ (Stemcell Technologies), 200 ng/mL stem cell factor (SCF, R&D Systems), 200 ng/mL Flt-3 (R&D Systems) and 40 ng/mL thrombopoietin (TPO, Stemcell Technologies). Then, 50 μL StemSpan containing 0.2 μM, 2 μM or 20 μM compounds was added to each well containing the cells. The cells were incubated for 24 hours at 37° C., after which the compound medium was removed from the wells and replaced with 50 μL medium containing StemSpan, 100 ng/mL SCF, 100 ng/mL Flt-3 and 20 ng/mL TPO. The cells from each well were mixed with 500 μL Methocult™ (Stemcell Technologies, H4434), and seeded into 12-well plates. The samples were imaged and scored after 14 days of incubation at 37° C.

[2] = system: lineage-depleted human umbilical cord blood cells; assay: Methylcellulose assay, CFU formation; format: cell-based; details: for Normal hematopoietic progenitor/stem cell proliferation activity (CFU-forming potential of cord blood cells): 0.1 μM, treated one day, 14 days in methylcellulose
From the text: as §1, §2

[3] = system: variant neoplastic stem cells; details: Sachlos et al., 2012; cited from earlier work
[4] = higher concentrations (above 0.1 μM)

| SMILES | Selectivity for cancer stem cells based on a single 10 μM concentration point [1] | Ability of AML cells to form CFUs (AML patient cells) | Selectivity ratio of total CFUs from cord blood cells versus blast CFUs from AML samples (AML patient cells) | Normal hematopoietic progenitor/stem cell proliferation activity (CFU-forming potential of cord blood cells) [2] | also measured |
| --- | --- | --- | --- | --- | --- |
| Nc1nc(O)c2[nH]nnc2n1 [Azaguanine-8] | would have not have been considered selective |  |  |  |  |
| Nc1ccn([C@@H]2O[C@H](CO)[C@@H](O)[C@@H]2O)c(=O)n1 [AraC, cytarabine] |  | reduced the ability of AML samples to form CFUs | no statistically significant difference | also affected the CFU-forming potential of cord blood cells | Toxicity to AML cells in methylcellulose assay (AML patient cells; [4]): toxic; Toxicity to cord blood cells in methylcellulose assay [2, 4]: toxic |
| CS(=O)(=O)O.Cn1cc(C2=C(c3cn(CCCSC(=N)N)c4ccccc34)C(=O)NC2=O)c2ccccc21 [Ro 31-8220 mesylate] | would have not have been considered selective |  |  |  |  |
| C[C@@H]1[C@H](O)[C@@H](C)/C=C/C=C/CC/C=C/C=C/C=C/C=C/C(O[C@H]2O[C@H](C)[C@@H](O)[C@H](N)[C@@H]2O)CC2O[C@](O)(CC(O)C(O)CCC(O)CC(O)CC(O)CC(=O)O[C@H]1C)CC(O)C2C(=O)O (some centres unmarked) [Nystatin] |  | reduced the ability of AML cells to form CFUs | 1.5 | little effect | CFU forming potential of AML cells (AML patient cells; 1 μM): no effect; CFU forming potential of AML cells (AML patient cells; 10 μM): no effect |
| CSc1ccc2c(c1)N(CCC1CCCCN1C)c1ccccc1S2 (centres unmarked) [Thioridazine] |  |  |  |  | Action on variant neoplastic stem cells [3]: inducing differentiation through a loss of pluripotency |
| CCCCc1ccc2[nH]c(NC(=O)OC)nc2c1 [Parbendazole] | would have not have been considered selective |  |  |  |  |
